From patent publication US20230050846A1, “TREATMENT OF HEPATIC AND CARDIOVASCULAR DISORDERS” (LIFESEARCH, priority 2019, published 2023)
Peptide text beside a SMILES is read from it. * marks the point of attachment. Palmitoyl = CCCCCCCCCCCCCCCC(=O)*

Tests used:
[1] = tested on: HepG2 cells; test: HDL endocytosis assay in hepatocytes; format: cell-based, human; conditions: 1 μM; HDL-Alexa568 50 μg/mL, 25 min; abolished by IF1 1 μM
Procedure: HepG2 cells were seeded on 96-well plates at 50,000 cells/well. HDL3 (d 1.12-1.21) were isolated from plasma of healthy human donors and referred to as HDL. HDL was fluorescently labeled with AlexaFluor®568 dye (A10238, Thermofisher Scientific) according the instructions of manufacturer. 1 h30 before the assay, the cells were serum starved for 1 h30 in order to stabilize nucleotide secretion. Cells were incubated with inhibitors (H49K, 1 μM) for 10 min before treatment with the different peptides (1 μM) or apoA-I (10 μg/ml) purified from human plasma. 5 min after peptide treatment, endocytosis was initiated by 50 μg/mL of AlexaFluor568®-labelled HDL. The same experiment was performed with a […] excess of unlabelled HDL (2.5 mg/mL) to determine the nonspecific fluorescence signal. After 25 min at 37° C., cells were then washed in serum-free DMEM and extracellular membrane-bound HDL was disassociated by incubating cells at 4° C. in serum-free DMEM for 90 min. Following washes, cells were lysate in NaOH 0.1M SDS 1% during 2 h, lysates were transferred in a black 96-wells plate and fluorescence was recorded at 568 nm (Varioscan flash). Fluorescence for each condition was substrate with the value obtained in unlabelled HDL condition, and results were expressed as the fold change as compared with the basal condition (untreated cells).

[2] = tested on: wild-type C57B/L6J mice; test: Biliary lipid secretions, gallbladder cannulation, wild-type mice; format: in vivo, mouse; conditions: for bile flux / biliary secretion of bile acids / biliary secretion of cholesterol: C57BL/6 mice, vs PBS or SCR
Procedure: Wild-type C57B/L6J male mice were purchased from Janvier Labs (Le Genest Saint Isle, France). LDLR knock-out mice (males, C57B/L6J background) were obtained from The Jackson Laboratory (Bar Harbor, Me., USA). Mice were caged in animal rooms under specific pathogen free conditions at the animal facility of Rangueil (Anexplo platform, US006, Toulouse, France) with a light/dark schedule of 12 h/12 h and were fed ad libitum with a normal chow diet (#V1535 R/M-H, Ssniff, Germany). All animal experimental procedures were conducted in accordance with institutional guidelines on animal experimentation approved by the local ethical committee of animal care and are conformed to the guidelines from Directive 2010/63/EU of the European Parliament on the protection of animals used for scientific purposes or the NIH guideline.
Depending of experiments, 8 weeks old mice were intraperitoneally injected with PBS, the peptide of formula (I), the peptide of formula (II) and SCR. Details of peptide use, dose and mode of administration and time course are specified in the description of FIG. 11. Given the short elimination half-life of the peptide of formula (I), osmotic pumps were also used to insure a continuous delivery for 14 days. Briefly, 200 μL osmotic pump were filled with 10 mg/mL of the peptide of formula (I) in PBS and were implanted subcutaneously into the mice according to the manufacturer's instructions (Alzet®, model pump #2002), to insure the peptide of formula (I) release at an estimated rate of 0.5 μL/h, which corresponds to an estimated amount of delivery of 5 mg of the peptide of formula (I) per kilogram of body weight per day (5 mg/kg BW/day). Following treatments, mice were fasted for 2 h and were then anesthetized by intra-peritoneal injection of ketamine and xylazine hydrochloride. The common bile duct was ligated close to the duodenum and the gallbladder was punctured and cannulated with a polyethylene-10 catheter. After 30 min of stabilization, newly secreted bile was collected for 30 min. During bile collection, body temperature was stabilized using a temperature mattress. Bile flow (expressed in μL/min/100 g of body weight) was determined gravimetrically assuming a density of 1 g/mL for bile. At the end of experiment, blood was collected and mice were sacrificed by cervical dislocation.
For bile acid analysis, 1 μL of bile samples was diluted with 99 μL of milliQ water then incubated with the work reagent (6 mg NAD, 0.5 M hydrazine hydrate buffer, 0.05 M Na-pyrophosphate) for 4 min. The mix was then incubated with a start reagent (0.03 M Tris-EDTA; 0.3 U/mL 3-alpha-OH steroid dehydrogenase) and measured for 30 min, under excitation of 340/330 nm and emission of 440/420 nm. For phospholipid analysis, 1 μL of bile samples was diluted with 49 μL of milliQ water then incubated with the work reagent (100 mM MOPS, pH 8; 0.55 mM HVA; 20 mM CaCl; 11 U/mL Phospholipase-D; 1.66 U/mL Peroxidase; 0.1% Triton X-100) for 4 min. The mix was then incubated with a start reagent (1 M MOPS, pH 8, 50 U/mL Choline oxidase) and measured for 67.5 min, under excitation of 340/330 and emission of 440/40. For cholesterol analysis, 1 μL of bile samples was diluted with 29 μL of milliQ water then was incubated with the work reagent (100 mM MOPS, pH 8, 0.25 mM HVA; 0.1% Triton X-100) for 4 min. The mix was then incubated with a start reagent (0.1 M MOPS, pH 8, 0.06 U/mL cholesterol oxidase, 0.15 U/mL cholesterol esterase, 0.45 U/mL Peroxidase, 0.06 mM Taurocholate) and measured for 45 min, under excitation of 340/330 nm and emission of 440/420 nm. Secretion values of bile acids, phospholipids and cholesterol were calculated by multiplying concentration and bile flow values, and expressed as nmol/min/100 g body weight (BW).

[3] = tested on: LDLR knock-out mice; test: Biliary lipid secretions, gallbladder cannulation, dyslipidemic LDLR KO mice; format: in vivo, mouse; conditions: dyslipidemic LDL KO mice, ip 25 mg/kg, 2 h
Procedure: Wild-type C57B/L6J male mice were purchased from Janvier Labs (Le Genest Saint Isle, France). LDLR knock-out mice (males, C57B/L6J background) were obtained from The Jackson Laboratory (Bar Harbor, Me., USA). Mice were caged in animal rooms under specific pathogen free conditions at the animal facility of Rangueil (Anexplo platform, US006, Toulouse, France) with a light/dark schedule of 12 h/12 h and were fed ad libitum with a normal chow diet (#V1535 R/M-H, Ssniff, Germany). […]
Depending of experiments, 8 weeks old mice were intraperitoneally injected with PBS, the peptide of formula (I), the peptide of formula (II) and SCR. […] Bile flow (expressed in μL/min/100 g of body weight) was determined gravimetrically assuming a density of 1 g/mL for bile. […]
For bile acid analysis, 1 μL of bile samples was diluted with 99 μL of milliQ water then incubated with the work reagent (6 mg NAD, 0.5 M hydrazine hydrate buffer, 0.05 M Na-pyrophosphate) for 4 min. The mix was then incubated with a start reagent (0.03 M Tris-EDTA; 0.3 U/mL 3-alpha-OH steroid dehydrogenase) and measured for 30 min, under excitation of 340/330 nm and emission of 440/420 nm. […] The mix was then incubated with a start reagent (1 M MOPS, pH 8, 50 U/mL Choline oxidase) and measured for 67.5 min, under excitation of 340/330 and emission of 440/40. […]

[4] = continuous delivery (osmotic pump, sc) 14 days, 5 mg/kg BW/day

Compound	effect on HDL endocytosis [1]	bile flux ([2]; intraperitoneal bolus 25 mg/kg)	biliary secretion of bile acids ([2]; intraperitoneal bolus 25 mg/kg)	biliary secretion of cholesterol ([2]; intraperitoneal bolus 25 mg/kg)	stimulation of biliary flux and biliary lipid secretion [3]	biliary flux and biliary lipid secretion, compared with the 25 mg/kg dose ([2]; bolus injection 12 mg/kg)	biliary cholesterol secretion [2, 4]	biliary flux [2, 4]	time following injection up to which the effect on bile flux and biliary secretion is maintained ([2]; intraperitoneal bolus 25 mg/kg)
CCCCCCCCCCCCCCCC(=O)NCCCC[C@H](NC(=O)[C@H](CCC(=O)O)NC(=O)[C@H](CCCNC(=N)N)NC(=O)[C@H](CO)NC(=O)[C@H](CCC(N)=O)NC(=O)[C@H](C)NC(=O)[C@H](CCCNC(=N)N)NC(=O)[C@H](Cc1ccccc1)NC(=O)[C@H](Cc1ccc(O)cc1)NC(=O)[C@H](CCCNC(=N)N)NC(=O)[C@H](CCC(=O)O)NC(=O)[C@H](CCC(=O)O)NC(=O)[C@H](CCC(=O)O)NC(=O)[C@H](C)NC(=O)[C@H](CCC(N)=O)NC(=O)[C@H](CCC(=O)O)NC(=O)[C@H](CCCNC(=N)N)NC(=O)[C@H](CCCCN)NC(=O)CNC(=O)[C@H](Cc1ccccc1)NC(=O)[C@H](C)NC(=O)CNC(=O)CNC(=O)[C@H](C)NC(=O)[C@H](CCC(=O)O)NC(=O)[C@H](CCCNC(=N)N)NC(=O)[C@@H](NC(=O)[C@H](CO)NC(=O)CNC(=O)[C@H](C)NC(=O)CNC(=O)[C@H](CCCNC(=N)N)NC(C)=O)[C@@H](C)CC)C(N)=O [peptide of formula (II), CH3CO-[SEQ ID NO: 1]-K-[palmitoyl]-NH2] (Ac-RGAGSIREAGGAFGKREQAEEERYFRAQSREK(Palmitoyl)-NH2)	stimulated	stimulated	stimulated	stimulated	maintained	–	–	–	–
Ac-RGAGSIREAGGAFGKREQAEEERYFRAQSRE-NH2 [peptide of formula (I), CH3CO-[SEQ ID NO: 1]-NH2]	stimulated	significant increase	significant increase	significant increase	maintained	less efficient	stimulated	stimulated	up to 4 h
